From patent US7045146B2, “Templating of solid particles by polymer multilayers” (Max-Planck-Gesellschaft zur Forderung der Wissenschaften …, priority 2000, dated 2006)

Experiments:
Type in all cases: physicochemical
[1] = Microelectrophoresis: zeta-potential of coated organic microcrystals
Procedure: The layer-by-layer assembly of polyelectrolytes onto FDA or PYR microcrystals was carried out as follows: 50 mg of finely milled core particles (FDA or PYR) were first thoroughly mixed with 12 mL of 0.2–0.4 wt % of the dispersing agent (ionic surfactant, lipid or charged polymer). Crystalline fluorescein diacetate or pyrene can be milled to fine particles using e.g. a mortar and pestle. However, also advanced ball milling procedures can be used.
The crystals were suspended by their immediate sonication for 5 min. The suspension was allowed to stand for 30 min, thus allowing the larger crystals to sediment, or gently centrifuged. The turbid white supernatant was then extracted, centrifuged and washed several times, and finally resuspended in water.
The resulting microcrystal particles were then layer-by-layer coated with PSS and PAH.^18 When positively charged surfactants or DPPC were used as the first layer, 1 mL of PSS solution (5 mg mL^−1, containing 0.5 M NaCl) was added first. PAH solution (1 mL of 5 mg mL^−1, containing 0.5 M NaCl) was added first when PSS or SDS were adsorbed onto the microcrystals. After an adsorption time of 15 min for PAH or PSS adsorption, the suspension was centrifuged at 3000 g for 5 min. The supernatant was then removed and three cycles of water washing and redispersing were applied to remove the excess unadsorbed polyelectrolyte in solution. Subsequent polyelectrolyte layers, bearing an opposite charge to that already adsorbed on the particle, were deposited in identical fashion to produce multilayer-coated microcrystals. In some cases, the fluorescently labeled polyelectrolyte, PAH-FITC, was applied (as a 2 mg mL^−1 solution containing 0.5 M NaCl) to form a fluorescent layer on the microcrystal surface.
The microelectrophoretic mobility of coated organic microcrystals was measured with a malvern Zetasizer 4 by taking the average of 5 measurements at the stationary level. The mobilities (μ) were converted to the electrophoretic potentials (ζ) using the Smoluchowski relation ζ=μη/ε, where η and ε are the viscosity and permittivity of the solution, respectively.^25 All measurements were performed on microcrystals re-dispersed in air-equilibrated pure water (pH ˜5.6).

[2] = Solubility in water
[3] = Release experiments: removal of the microcrystal core by ethanol, fluorescence of supernatant; details: control without polyelectrolyte multilayer
Procedure: Direct proof that a polymer multilayer cage encapsulated the microcrystals was obtained by removing the templated core. The release behaviour of the pyrene and fluoresceine diacetate molecules, from dissolution of the core templates, through the polymer capsule wall can be investigated by using fluorescence spectroscopy. Following centrifugation of the coated microcrystal suspensions that were exposed to ethanol, the supernatant was assessed for either pyrene or fluoresceine at regular time intervals.
12 mL of solvent (ethanol or ethanol/water mixtures) were dispensed into 15 mL tubes. 0.1 mL of the coated microcrystal suspension of Example 3 was then quickly added to each tube and after defined times (2, 5, 10 min etc.) the suspension was centrifuged at 3000 g for 5 min. A portion of the supernatant was removed and tested for the presence of PYR of FDA by fluorescence. For PYR, the fluorescence emission intensity of the supernatant was measured directly by using an excitation wavelength (λex) of 350 nm and monitoring the emission (λem) at 373 nm. FDA was first hydrolyzed into fluorescein either by treatment with esterase or dilute base prior to fluorescence measurement (λex=492 nm, λem=513 nm). As control experiments, the release characteristics of uncoated particles was also studied as outlined above.

[4] = SDS-dispersed crystals, layer No. 2, coating PAH
[5] = SDS-dispersed crystals, layer No. 3, coating PSS
[6] = SDS-dispersed crystals, layer No. 4, coating PAH
[7] = SDS-dispersed crystals, layer No. 5, coating PSS
[8] = SDS-dispersed crystals, layer No. 6, coating PAH-FTTC
[9] = crystals, layer No. 1, coating SDS detergent, pure water pH ~5.6

Compound	ζ-potential ([1]; SDS dispersed crystals (FIG. 2a)) [mV]	Zeta-potential [1, 4]	Zeta-potential [1, 5] [mV]	Zeta-potential [1, 6]	Zeta-potential [1, 7] [mV]	Zeta-potential [1, 8]	Zeta-potential [1, 9] [mV]	ζ-potential ([1]; microcrystals dispersed with DPPC (FIG. 2b))	ζ-potential ([1]; microcrystals exposed to PSS (FIG. 2b)) [mV]	solubility in water [2]	ζ-potential ([1]; crystals exposed to DDDAB (FIG. 2a))	time for removal of core upon addition of ethanol ([3]; DDDAB-dispersed (surfactant-coated) microcrystals) [min]	time for removal of core upon addition of ethanol ([3]; PSS-dispersed (PSS-coated) microcrystals) [min]
CC(=O)Oc1ccc2c(c1)Oc1cc(OC(C)=O)ccc1C21OC(=O)c2ccccc21 [Fluorescein diacetate, fluorescein diacetate]	−50	+42.9 mV	−37.7	+51.5 mV	−42.2	+48.2 mV	-85	+20 mV	−40	very low solubility in water			
c1cc2ccc3cccc4ccc(c1)c2c34 [Pyrene]		+59 mV	−46.5	+54.3 mV	−37.2	+47.3 mV	−68.5				+50 mV	≤ 30	≤ 30
